Data published in the supplement of paper PMC11061612.

Columns and labels:
[1] = system: ML-2 (Acute Myeloid Leukemia); test: combination Emax (second highest fraction inhibited in the dose matrix, 72 h); higher = more inhibition; extreme values may be limits of the assay
Procedure, shortened: (§1)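 Bliss excess equals the observed combination effect minus the expected value EA + EB − EA·EB, where EA and EB are the effects of each agent alone. Combination Emax is the second-highest inhibition within the matrix. Inhibition was scaled from CellTiter-Glo 2.0 luminescence, with 0 set by vehicle wells and 1 by blank wells, after 72 hours of two-drug dosing of cells plated in 1536-well plates.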

[2] = system: SW982 (Other Solid Carcinomas); test: as above
Procedure, shortened: as §1

[3] = system: EJM (Plasma Cell Myeloma); test: as above
Procedure, shortened: as §1

EW-1 (Ewing's Sarcoma) = test: as above
Procedure, shortened: as §1

[4] = system: ME-180 (Cervical Carcinoma); test: as above
Procedure, shortened: as §1

[5] = system: HCC1500 (Breast Carcinoma); test: as above
Procedure, shortened: as §1

[6] = system: NCI-H2122 (Lung Adenocarcinoma); test: as above
Procedure, shortened: as §1

[7] = system: G-401 (Other Solid Carcinomas); test: as above
Procedure, shortened: as §1

Hey (Ovarian Carcinoma) = test: as above
Procedure, shortened: as §1

[8] = system: SW872 (Other Solid Carcinomas); test: as above
Procedure, shortened: as §1

[9] = system: MV-4-11 (Acute Myeloid Leukemia); test: as above
Procedure, shortened: as §1

[10] = system: NCI-H1993 (Lung Adenocarcinoma); test: as above
Procedure, shortened: as §1

SK-N-AS (Neuroblastoma) = test: as above
Procedure, shortened: as §1

[11] = system: HCC1937 (Breast Carcinoma); test: as above
Procedure, shortened: as §1

[12] = system: HCC2998 (Colorectal Carcinoma); test: as above
Procedure, shortened: as §1

[13] = system: NCI-H1092 (Small Cell Lung Carcinoma); test: as above
Procedure, shortened: as §1

[14] = system: LC-1-sq (Squamous Cell Lung Carcinoma); test: as above
Procedure, shortened: as §1

[15] = system: EFO-21 (Ovarian Carcinoma); test: as above
Procedure, shortened: as §1

[16] = system: OACM5-1 (Esophageal Adenocarcinoma); test: Bliss excess, mean over the matrix (fraction); higher = more synergy
Procedure, shortened: as §1

[17] = system: DU-145 (Prostate Carcinoma); test: as above
Procedure, shortened: as §1

Row | Compound | combination Emax [1] | combination Emax [2] | combination Emax [3] | combination Emax (EW-1 (Ewing's Sarcoma)) | combination Emax [4] | combination Emax [5] | combination Emax [6] | combination Emax [7] | combination Emax (Hey (Ovarian Carcinoma)) | combination Emax [8] | combination Emax [9] | combination Emax [10] | combination Emax (SK-N-AS (Neuroblastoma)) | combination Emax [11] | combination Emax [12] | combination Emax [13] | combination Emax [14] | combination Emax [15] | Bliss excess [16] | Bliss excess [17]
1 | CC(=O)Nc1cccc(-n2c(=O)n(C3CC3)c(=O)c3c(Nc4ccc(I)cc4F)n(C)c(=O)c(C)c32)c1 [Trametinib] + Cc1nc(-c2cn3c(n2)-c2ccc(-c4cnn(C(C)(C)C(N)=O)c4)cc2OCC3)n(C(C)C)n1 [Taselisib] (first compound max 1 µM, 7x7, partner max 10 µM) | 0.968 | 0.83 | 0.488 | 0.761 | 0.714 | 0.319 | 1 | 0.958 | 0.893 | 0.588 | 0.848 | 0.898 | 0.73 | 0.722 | 0.928 | 0.161 | 0.722 | 0.618 | 0.03 | 0.0241
2 | CC1(C)CCC(CN2CCN(c3ccc(C(=O)NS(=O)(=O)c4ccc(NCC5CCOCC5)c([N+](=O)[O-])c4)c(Oc4cnc5[nH]ccc5c4)c3)CC2)=C(c2ccc(Cl)cc2)C1 [Venetoclax] + C1CN(CCC1(C(=O)N[C@@H](CCO)C2=CC=C(C=C2)Cl)N)C3=NC=NC4=C3C=CN4 [Capivasertib] (first compound max 1 µM, 7x7, partner max 3 µM) | 0.933 | 0.256 | 0.255 | 0.365 | 0.517 | 0.704 | 0.498 | 0.518 | 0.24 | 0.152 | 1 | 0.5 | 0.203 | 0.373 | 0.298 | 0.354 | 0.198 | 0.222 | 0.0191 | -0.0493
3 | CC1(C)CCC(CN2CCN(c3ccc(C(=O)NS(=O)(=O)c4ccc(NCC5CCOCC5)c([N+](=O)[O-])c4)c(Oc4cnc5[nH]ccc5c4)c3)CC2)=C(c2ccc(Cl)cc2)C1 [Venetoclax] + C=CCn1c(=O)c2cnc(Nc3ccc(N4CCN(C)CC4)cc3)nc2n1-c1cccc(C(C)(C)O)n1 [AZD1775] (first compound max 1 µM, partner max 1 µM) | 1 | 0.742 | 0.928 | 0.947 | 0.599 | 0.781 | 0.98 | 0.83 | 0.667 | 0.557 | 1 | 0.629 | 0.953 | 0.406 | 0.599 | 0.696 | 0.689 | 0.581 | -0.056 | -0.0098
4 | CC1(C)CCC(CN2CCN(c3ccc(C(=O)NS(=O)(=O)c4ccc(NCC5CCOCC5)c([N+](=O)[O-])c4)c(Oc4cnc5[nH]ccc5c4)c3)CC2)=C(c2ccc(Cl)cc2)C1 [Venetoclax] + CCN(CCO)CCCOc1ccc2c(Nc3cc(CC(=O)Nc4cccc(F)c4)[nH]n3)ncnc2c1 [AZD2811] (first compound max 1 µM, 7x7, partner max 1 µM) | 0.998 | 0.55 | 0.261 | 0.365 | 0.243 | 0.855 | 0.702 | 0.483 | 0.266 | 0.142 | 1 | 0.232 | 0.434 | 0.264 | 0.121 | 0.39 | 0.226 | 0.375 | -0.0406 | -0.0375
5 | CC1(C)CCC(CN2CCN(c3ccc(C(=O)NS(=O)(=O)c4ccc(NCC5CCOCC5)c([N+](=O)[O-])c4)c(Oc4cnc5[nH]ccc5c4)c3)CC2)=C(c2ccc(Cl)cc2)C1 [Venetoclax] + CN(C)CCCOc1ccc(-c2ccc3ncc4c(c3c2)n(C2CCOCC2)c(=O)n4C)cn1 [AZD0156] (first compound max 1 µM, 7x7, partner max 1 µM) | 0.822 | 0.2 | 0.159 | 0.179 | 0.211 | 0.864 | 0.212 | 0.35 | 0.216 | 0.172 | 1 | 0.413 | 0.17 | 0.283 | 0.105 | 0.252 | 0.192 | 0.29 | -0.0017 | -0.0261
6 | CC1(C)CCC(CN2CCN(c3ccc(C(=O)NS(=O)(=O)c4ccc(NCC5CCOCC5)c([N+](=O)[O-])c4)c(Oc4cnc5[nH]ccc5c4)c3)CC2)=C(c2ccc(Cl)cc2)C1 [Venetoclax] + COc1cc(Nc2ncc3c(n2)-c2ccc(Cl)cc2C(c2c(F)cccc2OC)=NC3)ccc1C(=O)O [Alisertib] (first compound max 1 µM, 7x7, partner max 10 µM) | 0.988 | 0.606 | 0.146 | 0.628 | 0.603 | 0.805 | 0.939 | 0.657 | 0.61 | 0.265 | 1 | 0.308 | 0.818 | 0.387 | 0.225 | 0.684 | 0.275 | 0.359 | 0.0758 | -0.0117
7 | CC1(C)CCC(CN2CCN(c3ccc(C(=O)NS(=O)(=O)c4ccc(NCC5CCOCC5)c([N+](=O)[O-])c4)c(Oc4cnc5[nH]ccc5c4)c3)CC2)=C(c2ccc(Cl)cc2)C1 [Venetoclax] + C[C@@H]1COCCN1C2=NC(=NC(=C2)C3(CC3)[S@](=N)(=O)C)C4=C5C=CNC5=NC=C4 [AZD6738] (first compound max 1 µM, 7x7, partner max 10 µM) | 1 | 0.676 | 0.869 | 0.944 | 0.571 | 0.855 | 0.947 | 0.703 | 0.774 | 0.459 | 1 | 0.582 | 0.896 | 0.587 | 0.779 | 0.458 | 0.672 | 0.444 | 0.0115 | -0.0097
8 | CC1(C)CCC(CN2CCN(c3ccc(C(=O)NS(=O)(=O)c4ccc(NCC5CCOCC5)c([N+](=O)[O-])c4)c(Oc4cnc5[nH]ccc5c4)c3)CC2)=C(c2ccc(Cl)cc2)C1 [Venetoclax] + C[C@@H](Nc1cc(F)cc(F)c1)c1cc(C(=O)N(C)C)cc2c(=O)cc(N3CCOCC3)oc12 [AZD8186] (first compound max 1 µM, 7x7, partner max 3 µM) | 0.983 | 0.382 | 0.278 | 0.303 | 0.129 | 0.736 | 0.174 | 0.345 | 0.139 | 0.167 | 1 | 0.296 | 0.0826 | 0.271 | 0.145 | 0.384 | 0.187 | 0.248 | 0.0321 | -0.0239
9 | CC1(C)CCC(CN2CCN(c3ccc(C(=O)NS(=O)(=O)c4ccc(NCC5CCOCC5)c([N+](=O)[O-])c4)c(Oc4cnc5[nH]ccc5c4)c3)CC2)=C(c2ccc(Cl)cc2)C1 [Venetoclax] + Cc1cc2ncnn2cc1Nc1ncc2c(n1)n(C1CCOCC1)c(=O)n2C [AZD7648] (first compound max 1 µM, 7x7, partner max 10 µM) | 0.823 | 0.27 | 0.238 | 0.418 | 0.268 | 0.823 | 0.284 | 0.424 | 0.328 | 0.158 | 1 | 0.541 | 0.295 | 0.244 | 0.109 | 0.317 | 0.242 | 0.28 | -0.0269 | -0.0166
10 | CC1(C)CCC(CN2CCN(c3ccc(C(=O)NS(=O)(=O)c4ccc(NCC5CCOCC5)c([N+](=O)[O-])c4)c(Oc4cnc5[nH]ccc5c4)c3)CC2)=C(c2ccc(Cl)cc2)C1 [Venetoclax] + Cn1cnc2c(F)c(Nc3ccc(Br)cc3Cl)c(C(=O)NOCCO)cc21 [Selumetinib] (first compound max 1 µM, 7x7, partner max 3 µM) | 1 | 0.242 | 0.0906 | 0.238 | 0.256 | 0.612 | 0.679 | 0.33 | 0.55 | 0.105 | 1 | 0.436 | 0.647 | 0.264 | 0.683 | 0.253 | 0.236 | 0.264 | 0.0243 | -0.0121
